Columns and labels:
[1] = Stability in human serum at 37° C. monitored by 31P NMR; assay type: in vitro ADME; settings: 12 h
Protocol: FIG. 5: Stability of HMBP phosphonate ProPAgen 4d in human serum at 37° C. for 12 hours as monitored by ^31P NMR. Prodrug 4d (5.0 mg) was dissolved in DMSO-d6 (0.10 mL) and D2O (0.15 mL). All ^31P NMR spectra were recorded at 37° C. Initially, a ^31P NMR scan of prodrug 4d (5.0 mg) in DMSO-d6 (0.10 mL) and D2O (0.15 mL) was recorded (shown as compound 4d alone in the figure). Following this, a previously defrosted human serum (0.30 mL) was added to the NMR tube and a spectrum immediately run. Spectra were recorded at 30 min after the addition and then at even time intervals over 12 hr.
FIG. 6: Stability of HMBP phosphonate ProPAgen 9a in human serum at 37° C. for 12 hours as monitored by ^31P NMR. Same as for compound 4d above. […] In fact, these are eight peaks as predicted and two extra peaks are seen when zoomed into these peaks to make the predicted eight phosphorous peaks of such compounds.
ProPAgen 4d with human serum at 37° C. for 12 h and monitored the sample by ^31P-NMR as reported previously^11.

[2] = tested on: T24 urinary bladder carcinoma cell lines; experiment: Cytotoxicity assay: specific lysis of T24 bladder cancer cells by Vγ9/Vδ2 T-cells; assay type: cell-based, human; settings: T24 cells incubated 4 hours with 100 pM ProPAgen 4d; effector target ratio 10:1, 18 hours; compared with 10 μM zoledronate and HMBPP
Protocol: FIG. 13. Cytotoxocity Assay showing potent lysis of bladder cancer cells following incubation with the HMBP phosphonate ProPAgen 4d. ProPAgen 4d mediates the specific lysis of T24 bladder cancer cells by Vγ9/Vδ2 T-cells.
Vγ9Vδ2 T cells were expanded from PBMCs in the presence of 5 μM zoledronate for 14 days and 100 U/ml IL-2 (Peprotech) was added into the media every 2-3 days, yielding ~85% Vγ9Vδ2 T cells. […] All cells were then labelled with eFluor780 viability dye and CFSE^+ eFluor780 viability dye^+ cells were measured using flow cytometry. Data were analysed using FlowJo V10.

human CD8+ T cells = experiment: Activation of human CD8+ T cells in PBMC (CD69 and CD25 upregulation, flow cytometry); assay type: cell-based; settings: for Concentration without CD8+ T cell activation relative to Vγ9/Vδ2 T-cell activation EC50: 1 μM versus calculated EC50; for Activation of CD8+ T cells: human PBMC, 20 h, up to 1 μM, CD69/CD25
Protocol: (§1) FIG. 11. FACS data showing a lack of activation of human CD8+ T cells by the HMBP phosphonate ProPAgen 4d. Human PBMCs were incubated with the indicated concentrations of ProPAgen 4d for 20 h. TCR CD8^+ T cells were then assessed for the upregulation of cell surface markers, CD69 and CD25, as a readout of the activation of CD8^+ T cells. Data was collected and analysed individually from two separate donors: Donor (1) results shown in FIG. 11A, Donor (2) results shown in FIG. 11B.
as §1, with “12.” for “11.”, “9d.” for “4d.”, “9d” for “4d”, “12A,” for “11A,”, “12B.” for “11B.”
Like peripheral blood γδ T-cells, peripheral blood CD8+ T-cells lack appreciable levels of surface CD69 or CD25 under steady state conditions, but upon T-cell receptor (TCR) stimulation upregulate both T-cell activation markers within 72 hours. PAg responsive CD8 T-cells were then distinguished by TCR CD8 expression and assessed for the upregulation CD69 and CD25.
Blood was obtained in the presence of a mixture of Heparin and Ethylenediaminetetraacetic acid (EDTA) as anticoagulants (2 U/ml heparin, 1.5 mM EDTA) from consented healthy donors (approved by the NRES Committee West Midlands ethical board; REC reference 14/WM/1254). Blood was then layered on a density gradient medium, lymphoprep (Stem Cell Technologies) and Peripheral blood mononuclear cells (PBMCs) were purified by gradient centrifugation. The cells were washed 2 times with Phosphate Buffered Saline (PBS), then resuspended in RPMI-1640 media supplemented with 2 mM L-glutamine, 25 mM HEPES, 1% sodium pyruvate, 50 μg/ml penicillin/streptomycin (Invitrogen) and 10% foetal calf serum.
(§2) Untreated and treated PBMCs were labelled with Zombie aqua viability dye (Biolegend) and subsequently were stained with a mixture of BV421-conjugated anti-CD3 (UCHT1, Biolegend), BV650-conjugated anti-CD8 (SK1; BD Bioscience), FITC-conjugated anti-CD25 (M-A25, Biolegend), PE-conjugated anti-CD69 (TP1.55.3; Beckman Coulter) and PE Cy5-conjugated anti-Vγ9 TCR (IMMU360, Beckman Coulter) and APC-conjugated anti-Vδ2 TCR (123R3, Miltenyi Biotech) antibodies. The percentages of CD69^+CD25^+ within CD8^+ T cell subset or Vγ9Vδ2 T-cell population were measured using flow cytometer. Data were analysed using FlowJo V10 software.

human Vγ9/Vδ2+ T cells = experiment: Activation of human Vγ9/Vδ2+ T cells in PBMC (CD69 and CD25 upregulation, flow cytometry); assay type: cell-based; settings: for Vγ9/Vδ2 T-cell activation potency (in words): human PBMC from healthy donors, 18-20 h, CD69/CD25, compared with HMBP phosphate ProPAgens or HMBPP; for EC50: human PBMC, 18 hr incubation, CD69 and CD25 upregulation
Protocol: FIG. 7. Activation of human Vγ9/Vδ2^+ T cells by HMBP phosphonate ProPAgens 4d and 9d. Human peripheral blood mononuclear cells (PBMC) were incubated with the indicated concentrations of ProPAgens 4d (left) and 9d (right) for 18 hr. TCR Vγ9/Vδ2^+ T cells were then assessed for the upregulation of cell surface markers, CD69 and CD25, as a readout to the activation of Vγ9/Vδ2^+ T cells. EC50 for both ProPAgens is ca. 8 pM (picomolar).
FIG. 8. FACS data showing the activation of human Vγ9/Vδ2^+ T cells by the HMBP phosphonate ProPAgen 4d in a dose-dependent manner. Human peripheral blood mononuclear cells (PBMC) were incubated with the indicated concentrations of ProPAgens 4d for 18 h (FIG. 8A) or 20 h (FIGS. 8B and 8C). For 20 h incubations, data was collected and analysed individually from two separate donors: Donor (1) results shown in FIG. 8B, Donor (2) results shown in FIG. 8C. TCR Vγ9/Vδ2^+ T cells were then assessed for the upregulation of cell surface markers, CD69 and CD25, as a readout to the activation of Vγ9/Vδ2^+ T cells.
FIG. 9. FACS data showing the activation of human Vγ9/Vδ2^+ T cells by the HMBP phosphonate ProPAgen 9d in a dose-dependent manner. Human peripheral blood mononuclear cells (PBMC) were incubated with the indicated concentrations of ProPAgens 9d for 18 h (FIG. 9A) or 20 h (FIGS. 9B and 9C). For 20 h incubations, data was collected and analysed individually from two separate donors: Donor (1) results shown in FIG. 9B, Donor (2) results shown in FIG. 9C. TCR Vγ9/Vδ2^+ T cells were then assessed for the upregulation of cell surface markers, CD69 and CD25, as a readout to the activation of Vγ9/Vδ2^+ T cells.
FIG. 10. […] Data was collected and analysed individually from two separate donors: Donor (1) results shown in FIG. 10A, Donor (2) results shown in FIG. 10B. TCR Vγ9/Vδ2^+ T cells were then assessed for the upregulation of cell surface markers, CD69 and CD25, as a readout to the activation of Vγ9/Vδ2^+ T cells.
Peripheral blood γδ T-cells lack appreciable levels of surface CD69 or CD25 under steady state conditions, but upon T-cell receptor (TCR) stimulation upregulate both T-cell activation markers within 72 hours. PAg responsive Vγ9/Vδ2 T-cells were then distinguished by TCR Vγ9 and Vδ2 expression and assessed for the upregulation CD69 and CD25. […]
as §2, with “The percentages of CD69^+CD25^+ within CD8^+ T cell subset or Vγ9Vδ2 T-cell population were measured using flow cytometer.” left out

SMILES	Stability in human serum [1]	T24 bladder cancer lysis by Vγ9/Vδ2 T-cells [2]	Concentration without CD8+ T cell activation relative to Vγ9/Vδ2 T-cell activation EC50 (human CD8+ T cells)	Activation of CD8+ T cells (human CD8+ T cells)	Vγ9/Vδ2 T-cell activation potency (in words) (human Vγ9/Vδ2+ T cells)	EC50 (human Vγ9/Vδ2+ T cells)
C/C(=C\CCP(=O)(N[C@@H](C)C(=O)OCc1ccccc1)Oc1ccccc1)CO (stereo partly shown) [ProPAgen 4d]	no degradation observed	significant enhancement	approx. 100,000 times	did not exhibit activation	potent Vγ9/Vδ2 T-cells activation	~8 pM
C/C(=C\CC(F)(F)P(=O)(N[C@@H](C)C(=O)OCc1ccccc1)Oc1ccccc1)CO (stereo partly shown) [ProPAgen 9d]			approx. 100,000 times	did not exhibit activation	potent Vγ9/Vδ2 T-cells activation	~8 pM

Reference: patent US12723055B2, “Phosphoantigen prodrug compounds” (priority 2018, dated 2026)
